Patent US12473296B2, “Perk inhibiting compounds” (HiberCell, Inc., priority 2019, dated 2025)

Columns and labels:
PERK = PERK (Homo sapiens (Human), UniProt Q9NZJ5); assay: PERK cellular assay (TR-FRET, HEK293-EGFP-eIF2α cells, tunicamycin-induced ER stress); type: cell-based; conditions: tunicamycin 2 hours, read-out: Cellular IC50 (μM) (EIF2a)
Experimental: Stable cell lines were created in HEK293 cells using lentiviral particles harboring an expression vector for GFP-eIF2α. Cells were selected using puromycin and enriched using fluorescence activated cell sorting against GFP. HEK293-EGFP-eIF2α cells were plated at 5000 cells/well in 384-well assay plates and incubated overnight at 37° C., 5% CO2. Inhibitor compounds were added to the wells by Echo acoustic dispensing and incubated for 30 minutes at 37° C., 5% CO2 prior to induction of ER stress by addition of tunicamycin to […] for 2 hours. Cells were lysed and TR-FRET was measured in an EnVision plate reader (PerkinElmer). FRET ratio data was normalized to signal from lysates treated with DMSO vehicle control and plotted as percent inhibition against 10-point; 3-fold dilution series of inhibitors. IC50 values were calculated using 4-parameter logistical fitting in XLFit.

[1] = target: EIF2AK3 (PERK) catalytic domain (amino acids 536-1116) (Homo sapiens (Human), UniProt Q9NZJ5); assay: PERK in vitro activity assay (isolated), TR-FRET kinase assay; conditions: isolated PERK enzyme, 1.5 μM ATP, GFP-eIF2a substrate; read-out: Biochemical IC50
Excerpt: PERK In Vitro Activity Assay (Isolated):
In vitro Inhibition of PERK Enzyme Activity (isolated) Recombinant human EIF2AK2 (PKR) catalytic domain (amino acids 252-551), EIF2AK3 (PERK) catalytic domain (amino acids 536-1116), GFP-eIF2a substrate, and Terbium-labelled phospho-eIF2a antibody is obtained (Invitrogen, Carlsbad, CA).
Express and purify HIS-SUMO-GCN2 catalytic domain (amino acids 584-1019) from E. coli. Perform TR-FRET kinase assays in the absence or presence of inhibitors in a reaction buffer consisting of 50 mM HEPES, pH 7.5, 10 mM MgCb, 1.0 mM EGTA, and 0.01% Brij-35, and 100-200 nM GFP-eIF2a substrate. […] Add test compound, initiate the reaction by addition of enzyme, and incubate at room temperature for 45 minutes. Stop the reaction by addition of EDTA to a final concentration of 10 mM, add Terbium-labelled phospho-eIF2a antibody at a final concentration of 2 nM, and incubate for 90 minutes. Monitor the resulting fluorescence in an EnVison® Multilabel reader (PerkinElmer, Waltham, MA). Determine TR-FRET ratios and the resulting IC50 values using a 4-parameter nonlinear logistic equation as shown: Y=(A+((B−A)/(1+((C/x)[…])))) where, Y=% specific inhibition, A=Bottom of the curve, B=Top of the curve, C=absolute IC50 (concentration causing 50% inhibition), and D=hill slope.

Chain of PERK (Q9NZJ5 30-1116): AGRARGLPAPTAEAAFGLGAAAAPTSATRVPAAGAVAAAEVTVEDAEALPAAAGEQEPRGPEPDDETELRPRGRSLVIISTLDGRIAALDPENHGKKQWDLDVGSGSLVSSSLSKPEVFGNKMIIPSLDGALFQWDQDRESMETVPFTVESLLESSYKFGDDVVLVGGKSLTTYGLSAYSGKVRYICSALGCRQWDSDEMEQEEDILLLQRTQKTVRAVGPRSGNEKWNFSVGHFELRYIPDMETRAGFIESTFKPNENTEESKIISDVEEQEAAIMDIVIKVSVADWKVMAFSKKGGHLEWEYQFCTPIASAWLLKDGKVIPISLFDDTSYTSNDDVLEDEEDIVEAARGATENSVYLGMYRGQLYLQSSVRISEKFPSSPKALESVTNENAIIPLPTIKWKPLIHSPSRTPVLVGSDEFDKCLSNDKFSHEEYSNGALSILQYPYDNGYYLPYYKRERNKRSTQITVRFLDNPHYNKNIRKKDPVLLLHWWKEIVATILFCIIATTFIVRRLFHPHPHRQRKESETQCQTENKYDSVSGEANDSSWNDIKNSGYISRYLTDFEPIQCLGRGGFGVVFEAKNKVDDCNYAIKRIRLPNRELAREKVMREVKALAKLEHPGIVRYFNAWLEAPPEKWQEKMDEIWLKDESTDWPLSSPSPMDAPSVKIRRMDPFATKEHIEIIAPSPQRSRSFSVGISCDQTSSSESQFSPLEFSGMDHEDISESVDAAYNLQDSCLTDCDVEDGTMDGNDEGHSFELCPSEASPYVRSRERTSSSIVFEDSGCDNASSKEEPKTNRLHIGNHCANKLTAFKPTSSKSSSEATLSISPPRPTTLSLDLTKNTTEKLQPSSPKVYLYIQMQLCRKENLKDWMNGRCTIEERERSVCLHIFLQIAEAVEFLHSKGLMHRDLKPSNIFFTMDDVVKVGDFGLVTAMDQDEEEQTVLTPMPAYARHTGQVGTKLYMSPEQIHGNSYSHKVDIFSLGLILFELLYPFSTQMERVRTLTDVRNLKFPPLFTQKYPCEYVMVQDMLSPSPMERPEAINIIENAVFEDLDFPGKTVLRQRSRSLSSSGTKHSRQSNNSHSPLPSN
Chain of EIF2AK3 (PERK) catalytic domain (amino acids 536-1116) (Q9NZJ5 536-1116): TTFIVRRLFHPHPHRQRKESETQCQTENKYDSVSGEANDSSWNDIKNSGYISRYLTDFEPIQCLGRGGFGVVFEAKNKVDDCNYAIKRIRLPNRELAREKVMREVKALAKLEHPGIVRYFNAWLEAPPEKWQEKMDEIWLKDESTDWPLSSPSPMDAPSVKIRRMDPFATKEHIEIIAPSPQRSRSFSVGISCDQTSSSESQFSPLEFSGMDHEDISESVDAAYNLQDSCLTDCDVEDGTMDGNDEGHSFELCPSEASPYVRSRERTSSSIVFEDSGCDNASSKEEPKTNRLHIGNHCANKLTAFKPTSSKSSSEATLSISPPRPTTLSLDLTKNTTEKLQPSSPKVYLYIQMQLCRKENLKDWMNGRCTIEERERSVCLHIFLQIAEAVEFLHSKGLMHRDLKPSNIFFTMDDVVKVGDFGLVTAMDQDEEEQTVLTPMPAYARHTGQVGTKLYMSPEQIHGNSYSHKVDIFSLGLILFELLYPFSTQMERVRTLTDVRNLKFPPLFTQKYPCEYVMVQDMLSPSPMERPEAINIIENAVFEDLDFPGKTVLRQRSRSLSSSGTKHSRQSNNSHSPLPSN

Compound	IC50 (PERK)	IC50 [1]
Cc1cc(NC(=O)C(=O)c2cc(F)cc(F)c2)ccc1-c1cnc(N)c(C(=O)NC(C)C)c1 [Example 184, 2-amino-5-(4-(2-(3,5-difluorophenyl)-2-oxoacetamido)-2-methylphenyl)-N-isopropyl nicotinamide]	0.101 to 0.25 µM	251 to 500 nM
Cc1cc(NC(=O)C(O)c2cc(F)cc(F)c2)ccc1-c1cnc(N)c(C(=O)NC2CC(O)C2)c1 (centres unmarked) [Example 26, 2-amino-5-(4-(2-(3,5-difluorophenyl)-2-hydroxyacetamido)-2-methylphenyl)-N-(3-hydroxycyclobutyl) nicotinamide]	0.101 to 0.25 µM	1 to 25 nM
Nc1ncc(-c2ccc(NC(=O)C(O)c3cc(F)cc(F)c3)cc2Cl)cc1C(=O)NC1CC1 (centres unmarked) [Example 85, 2-amino-5-(2-chloro-4-(2-(3,5-difluorophenyl)-2-hydroxyacetamido)phenyl)-N-cyclo-propylnicotinamide]	0.051 to 0.1 µM	1 to 25 nM
CC(C)NC(=O)c1cc(-c2ccc(NC(=O)C(O)c3cc(F)cc(F)c3)cc2OC(F)(F)F)cnc1N (centres unmarked) [Example 113, 2-amino-5-(4-(2-(3,5-difluorophenyl)-2-hydroxyacetamido)-2-(trifluoromethoxy)phenyl)-N-isopropylnicotinamide]	0.501 to 1 µM	51 to 100 nM
CCNC(=O)c1cc(-c2ccc(NC(=O)C(O)c3cc(F)cc(F)c3)c(F)c2C)cnc1N (centres unmarked) [Example 117, 2-amino-5-(4-(2-(3,5-difluorophenyl)-2-hydroxyacetamido)-3-fluoro-2-methylphenyl)-N-ethylnicotinamide]	0.001 to 0.025 µM	1 to 25 nM
CC(C)NC(=O)c1cc(-c2ccc(NC(=O)C(O)c3cc(F)cc(F)c3)cc2C(F)(F)F)cnc1N (centres unmarked) [Example 37, 2-amino-5-(4-(2-(3,5-difluorophenyl)-2-hydroxyacetamido)-2-(trifluoromethyl)phenyl)-N-isopropylnicotinamide]	0.251 to 0.5 µM	101 to 250 nM
Cc1cc(NC(=O)Cc2ccccc2Cl)ccc1-c1cnc(N)c(C(=O)NC(C)C)c1 [Example 198, 2-amino-5-(4-(2-(2-chlorophenyl)acetamido)-2-methylphenyl)-N-isopropylnicotinamide]	0.501 to 1 µM	26 to 50 nM
Cc1cccc(C(O)C(=O)Nc2ccc(-c3cnc(N)c(C(=O)NC(C)C)c3)c(C)c2)c1 (centres unmarked) [Example 67, 2-amino-5-(4-(2-hydroxy-2-(m-tolyl)acetamido)-2-methylphenyl)-N-isopropylnicotinamide]	0.051 to 0.1 µM	1 to 25 nM
Cc1cc(NC(=O)c2ccccc2)ccc1-c1cnc(N)c(C(=O)NC(C)C)c1 [Example 217, 2-amino-5-(4-benzamido-2-methylphenyl)-N-isopropylnicotinamide]	0.501 to 1 µM	> 5000 nM
CC(=O)N1CC(NC(=O)c2cc(-c3ccc(NC(=O)C(O)c4cc(F)cc(F)c4)cc3C)cnc2N)C1 (centres unmarked) [Example 31, N-(1-acetylazetidin-3-yl)-2-amino-5-(4-(2-(3,5-difluorophenyl)-2-hydroxyacetamido)-2-methylphenyl) nicotinamide]	3 to 4 µM	51 to 100 nM
Cc1ccc(CC(=O)Nc2ccc(-c3cnc(N)c(C(=O)NC(C)C)c3)c(C)c2)cc1 [Example 197, 2-amino-N-isopropyl-5-(2-methyl-4-(2-(p-tolyl)acetamido)phenyl)nicotinamide]	1 to 2 µM	101 to 250 nM
Nc1ncc(-c2ccc(NC(=O)C(O)c3cc(F)cc(F)c3)cc2Cl)cc1C(=O)NC1CC1 (centres unmarked) [Example 84, 2-amino-5-(2-chloro-4-(2-(3,5-difluorophenyl)-2-hydroxyacetamido)phenyl)-N-cyclopropyl-nicotinamide]	0.001 to 0.025 µM	1 to 25 nM
Cc1cc(NC(=O)C(O)c2cc(F)cc(F)c2)ccc1-c1cnc(N)c(C(=O)NC2COC2)c1 (centres unmarked) [Example 24, 2-amino-5-(4-(2-(3,5-difluorophenyl)-2-hydroxyacetamido)-2-methylphenyl)-N-(oxetan-3-yl)nicotinamide]	0.051 to 0.1 µM	1 to 25 nM
